Experimental data: PMC4467139, “Garcinol sensitizes human head and neck carcinoma to cisplatin in a xenograft mouse model despite downregulation of proliferative biomarkers” (Oncotarget, 2015)
Read-outs that look alike come from different tables or passages of the source. Peptide text beside a SMILES is read from it. * marks the point of attachment. Cbz = O=C(OCc1ccccc1)*; CH2F = FC*

Assays:
[1] = tested on: PARP cleavage in CAL27 cells; experiment: Western blot of PARP cleavage; assay type: cell-based, human; settings: Z-VAD-fmk 20 μM together with 15 μM garcinol and 5 μM cisplatin, 48 h
Experimental: Vehicle or drug-treated whole-cell extracts were lysed in lysis buffer [250 mM NaCl, 20 mM HEPES, 2 mM EDTA (pH 8.0), 0.5 mM EGTA, 0.1% Triton X-100, 1.5 μg/mL aprotinin, 1.5 μg/mL leupeptin, 1 mM phenylmethylsulfonylfluoride (PMSF), and 1.5 mM NaVO4]. Lysates were then spun at 13,300 rpm for 10 min to remove insoluble material and resolved on a 10% SDS gel. After electrophoresis, the proteins were electrotransferred to a nitrocellulose membrane (Bio-Rad), blocked with Blocking One (Nacalai Tesque, Inc.), and probed with antibodies of interest overnight at 4 °C. The blot was washed with TBS with 0.1% Tween-20, exposed to HRP-conjugated secondary antibodies for 1 h, and finally examined by chemiluminescence using Western Bright Sirius HRP substrate (Advansta).
Supplementary Figure 2: Z-VAD-fmk abrogates the garcinol-induced caspase-3 activation. CAL27 cells (5 × 10^5 cells/mL) were treated with 15 μM garcinol and/or 5 μM cisplatin for 48 h in the absence or presence of 20 μM Z-VAD-fmk, whole-cell extracts were prepared, separated by SDS-PAGE, and subjected to western blot against PARP antibody. The same blot was stripped and reprobed with β-actin antibody to verify equal protein loading.
(also on this page, place not known: www.impactjournals.com/oncotarget/ Oncotarget, Materials 2014 Supplementary Z-V AD-fmk 10 5 Z-V AD-fmk,) […]

CAL27 xenografts = experiment: HNSCC xenograft mouse model, tumor volume; assay type: in vivo, athymic nu/nu female mice; settings: 4 weeks, garcinol 0.5 mg/kg i.p. five times/week, cisplatin 2 mg/kg i.p. twice weekly
Experimental: (§1) All procedures involving animals were reviewed and approved by NUS Institutional Animal Care and Use Committee. Six-week old athymic nu/nu female mice (Animal Resource Centre, Australia) were implanted subcutaneously in the right flank with CAL27 cells (3 × 10^6 cells/100 μL saline). When tumors have reached 0.25 cm in diameter, the mice were randomized into the following treatment groups (n = 5/group): (I) untreated control (0.1% DMSO, 100 μL daily); (II) garcinol (0.5 mg/kg body weight, suspended in 0.1% DMSO, intraperitoneal [i.p.] injection, five times/week); (III) cisplatin alone (2 mg/kg body weight, suspended in 0.1% DMSO, i.p. injection, twice/week); and (IV) combination (garcinol, 0.5 mg/kg body weight, i.p. injection, five times/week and cisplatin, 2 mg/kg body weight, i.p. injection, twice/week). Therapy was continued for 4 weeks, and the animals were euthanized 24 h after the last dose. Primary tumors were excised and the final tumor volume was calculated using the formula V = L × (W)^2/2 where L is the length and W is the width. Half of the tumor tissue was fixed in formalin and embedded in paraffin for immunohistochemistry (IHC) analysis. The other half was snap frozen in liquid nitrogen and stored at −80°C.

MDA686LN cells = experiment: MTT cell viability assay; assay type: cell-based; settings: Homo sapiens, 72 h
Experimental: (§2) The inhibitory effect of garcinol against HNSCC cell growth was determined by the MTT dye uptake method as described previously. Briefly, the cells (5 × 10^4 cells/mL) were incubated in triplicate in a 96-well plate in the presence or absence of different concentrations of garcinol in a final volume of 0.2 mL for indicated time intervals at 37 °C. Thereafter, 20 μL MTT solution (5 mg/mL in PBS) was added to each well. After a 2 h incubation at 37°C, 0.1 mL lysis buffer (20% SDS, 50% dimethylformamide) was added after removal of the medium, incubation was continued at 37°C for 1 h, and then the optical density (OD) at 570 nm was measured by the Safire2™ microplate reader (Tecan).

UMSCC1 cells = experiment: MTT cell viability assay; assay type: cell-based; settings: Homo sapiens, UMSCC1, 72 h
Experimental: as §2

CAL27 cells = experiment: MTT cell viability assay; assay type: cell-based; settings: Homo sapiens, CAL-27, CAL27, 72 h
Experimental: as §2, with “(Tecan). […]” for “(Tecan).”
www.impactjournals.com/oncotarget/ Oncotarget, Supplementary Materials 2015 […]
Supplementary Figure 1: (A) Garcinol augments the cytotoxic effect of cisplatin in HNSCC cells. CAL27 cells (1 × 10^4 cells/well) were exposed for 48 h to different concentrations of garcinol and cisplatin, and their combination and then subjected to MTT assay to analyze the viability of tumor cells. (B) Assessment on the type of combination relationship was done using the method developed by Chou-Talalay multiple drug effect equation. The degree of synergy was assessed based on CI values, where CI values of > 1.0 implies antagonism, 1.0 implies additive and < 1.0 implies synergistic effect relationships. […]

[2] = tested on: NF-κB-dependent reporter gene expression in MDA686Tu cells; experiment: NF-κB luciferase reporter assay; assay type: cell-based, human; settings: 12 h
Experimental: MDA686Tu cells (1 × 10^4 cells/well) in 96-well were transfected of plasmid with NF-κB responsive […] elements linked to a luciferase reporter gene using lipofectamine® 2000. After transfection for 48 h, indicated concentrations of garcinol were added into the wells for 12 h. Luciferase activity was determined using Bright-Glo™ luciferase assay kit from Promega.

[3] = Pharmacokinetics study of garcinol in mice; assay type: in vivo; settings: nude, ip, mouse serum; for AUC: read-out: area under the serum concentration-time curve (AUC) at 8 h; for Cmax: read-out: peak serum concentration (Cmax); for Tmax: read-out: time of peak serum concentration post-dose
Experimental: Pharmacokinetics of garcinol was conducted in nude mice by i.p. injection at dose of 0.5 mg/kg or 2 mg/kg. The mice were allowed food and water ad libitum before pharmacokinetics experiment. About 150 μL of blood was taken from facial vein of mice at 10 min, 30 min, 1, 2, 4, 6, and 8 h post-dose. After centrifugation of blood samples at 14,000 rpm at 4°C for 10 min, mouse sera (the supernatant) were transferred into Eppendorf tube. 10 μL of each serum was processed by adding 3-folds excess of acetonitrile-containing isogarcinol, the internal standard followed by vortexing for 1 min. The tube was then centrifuged at 14,000 rpm at 4°C for 10 min. Then 30 μL of the supernatants were transferred into glass inserts (250 μL) with 70 μL of 10 mM ammonia acetate solution. 50 μL of processed serum samples were injected into LC-MS/MS which was carried out under negative electrospray ionization (ESI) and multiple reaction monitoring (MRM) mode. […] The daughter ion monitored for garcinol and isogarcinol was 409 and 335, respectively. SCIEX Analyst software (version 1.4.2) was used for data acquisition and analysis.

[4] = Body weight during xenograft experiment; assay type: in vivo, athymic nu/nu female mice; settings: four week treatment; garcinol 0.5 mg/kg i.p. five times/week, alone or with cisplatin 2 mg/kg i.p. twice weekly
Experimental: as §1

AUC ([3]; 0.5 mg/kg i.p.) [µM·h]	Cmax ([3]; 0.5 mg/kg i.p.) [µM]	Tmax ([3]; 0.5 mg/kg i.p.) [min]	AUC ([3]; 2 mg/kg i.p.) [µM·h]	Cmax ([3]; 2 mg/kg i.p.) [µM]	Tmax ([3]; 2 mg/kg i.p.) [min]	Structure (SMILES)	effect on increased PARP cleavage [1]	reduction of tumor volume (CAL27 xenografts) [%]	IC50 (MDA686LN cells) [µM]	IC50 (UMSCC1 cells) [µM]	IC50 (CAL27 cells) [µM]	NF-κB-dependent reporter gene expression [2]	body weight of the animals [4]
–	–	–	–	–	–	COC(=O)C[C@H](NC(=O)[C@H](C)NC(=O)[C@@H](NC(=O)OCc1ccccc1)C(C)C)C(=O)CF [Z-VAD-fmk] (Cbz-Val-Ala-Asp(OMe)-CH2F)	completely blocked	–	–	–	–	–	–
–	–	–	–	–	–	N.N.[Cl][Pt][Cl] [cisplatin, cis-dichloro-diammineplatinum (II)]	–	50	–	–	–	–	–
4.3	1.83	30	16.9	6.64	30	C=C(C)[C@@H](CC=C(C)C)C[C@@]12C[C@@H](CC=C(C)C)C(C)(C)[C@@](CC=C(C)C)(C(=O)C(C(=O)c3ccc(O)c(O)c3)=C1O)C2=O [garcinol]	–	50	13.8	11.6	14.7	significantly abrogate	no significant loss of body weight
